“And” between values parts separate entries of the source, which are not always exact repeats. Equal values may be shown once. “Also recorded” adds a separate entry of the source. Read-outs that look alike come from different tables or passages of the source.
Key:
[1] = biological target: heteromeric KCNQ2/3 channels (Homo sapiens, UniProt O43525+O43526); assay: TEVC in Xenopus oocytes; format: cell-based; conditions: for EC50: at −60 mV; for effect of compound alone on KCNQ2/3 current: 100 µM
Text: cRNA transcripts encoding human KCNQ1, KCNQ2, KCNQ3, KCNQ4, KCNQ5, KCNA1, or KCNE1 were generated by in vitro transcription using the T7 polymerase mMessage mMachine kit (Thermo Fisher Scientific), after vector linearization, from complementary DNA (cDNA) sub-cloned into plasmids incorporating Xenopus laevis β-globin 5′ and 3′ untranslated regions flanking the coding region to enhance translation and cRNA stability. cRNA was quantified by spectrophotometry. […] Defolliculated stage V and VI Xenopus laevis oocytes (Ecocyte Bioscience, Austin, TX) were injected with Kv channel α subunit cRNAs (5–10 ng).
Oocytes were placed in a small-volume oocyte bath (Warner) and viewed with a dissection microscope. Chemicals were sourced from Sigma. Bath solution was (in mM): 96 NaCl, 4 KCl, 1 MgCl2, 1 CaCl2, 10 HEPES (pH 7.6). […] Valeric acid was stored as a 5 mM stock in Ringer’s solution at 4 °C and diluted to working concentrations each experimental day. β-hydroxybutyric acid was stored at 4 °C as a 480 mM stock in 100% ethanol and diluted to working concentrations each experimental day. All compounds were introduced to the recording bath via gravity perfusion at a constant flow of 1 ml per min for 3 min prior to recording. Pipettes were of 1–2 MΩ resistance when filled with 3 M KCl. Currents were recorded in response to pulses between −80 mV and +40 mV at 20 mV intervals, or a single pulse to +40 mV, from a holding potential of −80 mV, to yield current-voltage relationships, current magnitude, and for quantifying activation rate. Deactivation was recorded at −80 mV after a single activating pulse to +40 mV, from a holding potential of −80 mV. […] TEVC data analysis was performed with Clampfit (Molecular Devices) and Graphpad Prism software (GraphPad, San Diego, CA, USA); values are stated as mean ± SEM. Normalized tail currents were plotted versus prepulse voltage and fitted with a single Boltzmann function:1 g=(A1-A2)/1+expV1/2-V∕VS+A2, where g is the normalized tail conductance, A1 is the initial value at −∞, A2 is the final value at +∞, V1/2 is the half-maximal voltage of activation, and VS the slope factor. Activation and deactivation kinetics were fitted with single exponential functions.

[2] = system: canonical GABAA receptors; set-up: method as in PMID 17717222; conditions: up to 5 mM BHB; cited from earlier work
KCNQ3* = system: KCNQ3*; set-up: method as in PMID 26333338; conditions: read-out: EC50 (sensitivity previously reported); cited from earlier work
[3] = system: native M-current in PC12 cells; assay: Whole-cell patch clamp of NGF-differentiated PC12 cells; format: cell-based, rat
Protocol: CHO cells (ATCC) were seeded on poly-L-lysine-treated glass coverslips in 24-well plates and transfected the next day using 0.5 µg each of mouse KCNQ2 and KCNQ3 cDNA in a CMV vector per well in normal media (DMEM with 10% FBS and 1% penicillin/streptomycin). The transfection reagent used was TransIT-LT1 (Mirus Bio LLC, Madison, WI, USA) and cells were patched 48–72 h post transfection. […] Media was replenished every 3 days and cultures were split once a week. […] Cell culture plastic ware and reagents were purchased from VWR and Fisher Scientific unless otherwise stated.
For both CHO cells and PC12 cells, currents were recorded in whole-cell mode at room temperature (22–25 °C) with 3–6 MΩ borosilicate glass electrodes backfilled with solution containing (in mM): 90 K acetate, 20 KCl, 40 HEPES, 3 MgCl2, 1 CaCl2, 3 EGTA-KOH, 2 MgATP; pH 7.2.
The pClamp8 (Molecular Devices) software package was used for data acquisition and Clampfit was used for analysis, along with Graphpad Prism 7.0 (Graphpad).

[4] = system: native M-current in mouse DRG neurons; assay: Perforated patch-clamp of dorsal root ganglion neurons; format: cell-based; conditions: XE991 10 µM in combination with GABA 100 µM
Protocol: Adult male mice were purchased from Jackson Labs and then housed and used according to a protocol approved by the Institutional Animal Care and Use Committee of University of California, Irvine, and consistent with recommendations in the NIH Guide for the Care and Use of Laboratory Animals (8th edition, 2011). […]. DRG neurons were then cultured on poly-L-lysine and laminin-coated plastic coverslips in RPMI 1640 with 10% horse serum and 1% penicillin/streptomycin at 37 °C for 1–4 days before electrophysiological recordings were performed using perforated patch clamp. Amphotericin B (VWR, Radnor, PA) was dissolved in DMSO at 5 mg/ml (stock solution), then diluted to 150–200 µg/ml in intracellular solution and sonicated with a probe sonicator on ice for 5 s, kept at room temperature in the dark, and replaced every hour with a fresh solution from the stock. The working amphotericin solution was backfilled into borosilicate glass electrodes (3–5 MΩ) previously tip-filled to ~0.5 mm with intracellular solution lacking amphotericin B, immediately prior to sealing onto individual neurons. After whole-cell configuration was achieved and capacitance stabilized, whole-cell recordings were performed essentially as described in the prior paragraph, with the following differences: neurons were held at −20 mV to inactivate other channels before the test pulses; offline leak subtraction was performed.

KCNQ1 = KCNQ1 (Homo sapiens, UniProt P51787); assay: 3H-GABA radioligand binding in Xenopus oocytes; conditions: extracellularly applied, 100 nM
KCNQ4 = KCNQ4 (Homo sapiens, UniProt P56696); assay: 3H-GABA radioligand binding in Xenopus oocytes; conditions: extracellularly applied, 100 nM
KCNQ5 = KCNQ5 (Homo sapiens, UniProt Q9NR82); assay: 3H-GABA radioligand binding in Xenopus oocytes; conditions: extracellularly applied, 100 nM
GABA receptors = system: GABA receptors; set-up: method as in PMID 25779225; conditions: cited from earlier work
[5] = 100 µM compound with 10 µM GABA
[6] = 10 µM XE991 + 100 µM picrotoxin + 10 µM CGP55845, recorded after the GABA condition
[7] = Ctrl with 2 µg/ml Pertussis toxin, no GABA

Chain of heteromeric KCNQ2/3 channels (O43526 whole entry): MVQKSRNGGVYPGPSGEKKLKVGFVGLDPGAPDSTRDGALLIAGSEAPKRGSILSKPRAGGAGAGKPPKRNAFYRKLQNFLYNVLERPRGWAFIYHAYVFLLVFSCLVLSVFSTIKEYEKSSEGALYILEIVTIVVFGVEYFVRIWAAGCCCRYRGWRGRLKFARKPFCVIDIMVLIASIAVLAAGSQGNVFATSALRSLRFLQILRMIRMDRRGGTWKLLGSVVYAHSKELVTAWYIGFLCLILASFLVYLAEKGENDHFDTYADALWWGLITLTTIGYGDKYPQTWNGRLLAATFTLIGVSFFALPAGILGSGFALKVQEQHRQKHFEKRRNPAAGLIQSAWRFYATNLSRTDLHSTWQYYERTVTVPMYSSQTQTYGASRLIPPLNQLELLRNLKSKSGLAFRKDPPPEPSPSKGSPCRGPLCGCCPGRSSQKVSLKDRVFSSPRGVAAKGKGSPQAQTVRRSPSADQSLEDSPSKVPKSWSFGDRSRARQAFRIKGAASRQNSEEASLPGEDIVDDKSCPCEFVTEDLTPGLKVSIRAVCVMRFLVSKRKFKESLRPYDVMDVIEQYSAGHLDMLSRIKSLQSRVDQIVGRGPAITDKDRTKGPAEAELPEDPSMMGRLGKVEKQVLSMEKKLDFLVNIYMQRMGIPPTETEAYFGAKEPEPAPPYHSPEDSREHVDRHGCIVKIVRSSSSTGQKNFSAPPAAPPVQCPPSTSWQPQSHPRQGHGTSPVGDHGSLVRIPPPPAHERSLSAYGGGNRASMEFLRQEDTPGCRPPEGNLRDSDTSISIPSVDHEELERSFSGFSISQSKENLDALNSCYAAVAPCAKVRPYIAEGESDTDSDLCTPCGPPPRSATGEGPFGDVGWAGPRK
Chain of heteromeric KCNQ2/3 channels (O43525 whole entry): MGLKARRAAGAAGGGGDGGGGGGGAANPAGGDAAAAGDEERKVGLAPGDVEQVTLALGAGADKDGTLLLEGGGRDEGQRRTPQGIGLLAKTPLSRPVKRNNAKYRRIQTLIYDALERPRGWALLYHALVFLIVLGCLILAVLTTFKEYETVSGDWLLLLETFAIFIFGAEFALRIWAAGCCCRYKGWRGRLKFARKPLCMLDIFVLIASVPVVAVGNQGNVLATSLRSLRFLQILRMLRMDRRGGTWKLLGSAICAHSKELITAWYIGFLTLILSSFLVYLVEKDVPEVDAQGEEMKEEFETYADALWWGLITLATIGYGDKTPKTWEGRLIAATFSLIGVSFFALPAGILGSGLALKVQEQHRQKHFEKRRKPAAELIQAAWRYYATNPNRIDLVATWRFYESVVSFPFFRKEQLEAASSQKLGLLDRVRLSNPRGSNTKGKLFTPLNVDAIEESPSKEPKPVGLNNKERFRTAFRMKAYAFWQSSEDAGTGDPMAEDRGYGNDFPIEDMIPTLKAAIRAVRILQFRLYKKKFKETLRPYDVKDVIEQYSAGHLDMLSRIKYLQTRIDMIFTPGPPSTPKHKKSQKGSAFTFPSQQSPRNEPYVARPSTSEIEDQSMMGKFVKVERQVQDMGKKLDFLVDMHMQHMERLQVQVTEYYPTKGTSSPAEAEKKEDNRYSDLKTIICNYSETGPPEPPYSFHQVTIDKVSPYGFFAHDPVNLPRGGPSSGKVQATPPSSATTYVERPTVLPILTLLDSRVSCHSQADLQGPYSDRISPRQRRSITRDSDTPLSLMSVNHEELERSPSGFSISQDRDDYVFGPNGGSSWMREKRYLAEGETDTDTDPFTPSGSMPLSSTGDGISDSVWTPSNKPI

CC(=O)OCC[N+](C)(C)C [ACh, acetylcholine]
Slope [1]: 4.8 ± 2.7 mV and 3.8 ± 6.5 mV and 5.1 ± 2.5 mV and 5.6 ± 2.7 mV and 5.1 ± 1.9 mV | concentration giving maximal effect [1]: ≥ 1 µM | effect on KCNQ2/3 activity via endogenous mAChRs [1]: inhibited

CC(O)CC(=O)O (stereo not drawn) [BHB, β-hydroxybutyric acid]
Slope ([1]; 1 µM β-Hydrox, Ctrl 6.2 ± 0.8): 5.9 ± 0.4 mV | Normalized tail current V0.5 ([1]; 1 µM β-Hydrox, Ctrl -36.1 ± 1.8): -46.1 ± 0.6 mV | Non-normalized tail current V0.5 ([1]; 1 µM β-Hydrox, Ctrl -36.4 ± 8.7): -43.9 ± 8.2 mV | Slope ([1]; 10 µM β-Hydrox, Ctrl 6.2 ± 0.8): 5.9 ± 0.4 mV | Normalized tail current V0.5 ([1]; 10 µM β-Hydrox, Ctrl -36.1 ± 1.8): -48.1 ± 0.4 mV | Non-normalized tail current V0.5 ([1]; 10 µM β-Hydrox, Ctrl -36.4 ± 8.7): -45.5 ± 7.9 mV | Slope ([1]; 100 µM β-Hydrox, Ctrl 6.2 ± 0.8): 5.9 ± 0.3 mV | Normalized tail current V0.5 ([1]; 100 µM β-Hydrox, Ctrl -36.1 ± 1.8): -50.2 ± 0.3 mV | Non-normalized tail current V0.5 ([1]; 100 µM β-Hydrox, Ctrl -36.4 ± 8.7): -46.0 ± 7.9 mV | Slope ([1]; 1 mM β-Hydrox, Ctrl 6.2 ± 0.8): 5.7 ± 0.6 mV | Normalized tail current V0.5 ([1]; 1 mM β-Hydrox, Ctrl -36.1 ± 1.8): -46.5 ± 0.9 mV | Non-normalized tail current V0.5 ([1]; 1 mM β-Hydrox, Ctrl -36.4 ± 8.7): -46.0 ± 7.4 mV | Slope ([1]; 4 mM β-Hydrox, Ctrl 6.2 ± 0.8): 4.9 ± 0.6 mV | Normalized tail current V0.5 ([1]; 4 mM β-Hydrox, Ctrl -36.1 ± 1.8): -44.9 ± 0.8 mV | Non-normalized tail current V0.5 ([1]; 4 mM β-Hydrox, Ctrl -36.4 ± 8.7): -44.7 ± 7.1 mV | EC50 [1]: 950 ± 130 nM | BHB sensitivity [2]: BHB-insensitive

C[C@H](NC[C@H](O)CP(=O)(O)Cc1ccccc1)c1ccc(Cl)c(Cl)c1 [CGP55845, reference compound]
effect of compound alone on KCNQ2/3 current [1]: neither altered KCNQ2/3 currents alone | Slope ([1]; 100 µM CGP, Ctrl 6.7 ± 0.3): 6.6 ± 0.7 mV | Non-normalized tail current V0.5 ([1]; 100 µM CGP, Ctrl -44.9 ± 3.5): -45.6 ± 3.7 mV | Normalized tail current V0.5 ([1]; 100 µM CGP, Ctrl -45.1 ± 0.3): -47.1 ± 1.1 mV | effect on GABA activation of KCNQ2/3 [1, 5]: nor did it diminish GABA activation of KCNQ2/3

NCC(O)CC(=O)O (stereo not drawn) [GABOB, γ-amino-β-hydroxybutyric acid]
agonist character compared to BHB and GABA [1]: lower efficacy partial agonist | effect on retigabine activation of KCNQ2/3 [1]: reduces the efficacy | Slope ([1]; 0.01 µM GABOB, Ctrl 10.3 ± 1.3): 11.1 ± 1.8 mV | Non-normalized tail current V0.5 ([1]; 0.01 µM GABOB, Ctrl -43.8 ± 3.9): -42.7 ± 5.0 mV | Normalized tail current V0.5 ([1]; 0.01 µM GABOB, Ctrl -44.9 ± 1.5): -42.8 ± 2.0 mV | Slope ([1]; 0.1 µM GABOB, Ctrl 10.3 ± 1.3): 10.6 ± 1.6 mV | Non-normalized tail current V0.5 ([1]; 0.1 µM GABOB, Ctrl -43.8 ± 3.9): -45.8 ± 5.1 mV | Normalized tail current V0.5 ([1]; 0.1 µM GABOB, Ctrl -44.9 ± 1.5): -46.6 ± 1.9 mV | Slope ([1]; 1 µM GABOB, Ctrl 10.3 ± 1.3): 10.1 ± 1.2 mV | Non-normalized tail current V0.5 ([1]; 1 µM GABOB, Ctrl -43.8 ± 3.9): -46.4 ± 4.7 mV | Normalized tail current V0.5 ([1]; 1 µM GABOB, Ctrl -44.9 ± 1.5): -47.1 ± 1.4 mV | Slope ([1]; 10 µM GABOB, Ctrl 10.3 ± 1.3): 9.6 ± 0.9 mV | Non-normalized tail current V0.5 ([1]; 10 µM GABOB, Ctrl -43.8 ± 3.9): -46.8 ± 4.5 mV | Normalized tail current V0.5 ([1]; 10 µM GABOB, Ctrl -44.9 ± 1.5): -48.1 ± 1.2 mV | Slope ([1]; 100 µM GABOB, Ctrl 10.3 ± 1.3): 9.3 ± 0.8 mV | Non-normalized tail current V0.5 ([1]; 100 µM GABOB, Ctrl -43.8 ± 3.9): -46.3 ± 4.2 mV | Normalized tail current V0.5 ([1]; 100 µM GABOB, Ctrl -44.9 ± 1.5): -47.8 ± 0.9 mV | effect on GABA activation of KCNQ2/3 [1, 5]: diminished the KCNQ2/3-activating efficacy of GABA | Slope ([1]; 1 mM GABOB, Ctrl 10.3 ± 1.3): 9.2 ± 0.7 mV | Non-normalized tail current V0.5 ([1]; 1 mM GABOB, Ctrl -43.8 ± 3.9): -46.7 ± 4.0 mV | Normalized tail current V0.5 ([1]; 1 mM GABOB, Ctrl -44.9 ± 1.5): -48.0 ± 0.9 mV | lowering of retigabine efficacy ([1]; at -60 mV): almost fourfold | EC50 [1]: 100 ± 10 nM

Cc1cc(C)c(NC(=O)C2CC3CCC2C3)c(C)c1 (stereo not drawn) [ML-213]
EC50 (KCNQ3*): 3600 nM

O=C1c2ccccc2C(Cc2ccncc2)(Cc2ccncc2)c2ccccc21 [XE991]
effect on GABA-augmented KCNQ2/3 current ([1]; XE991 50 µM): readily inhibited | Normalized tail current V0.5 [3, 6]: -4.9 ± 4.3 mV | Slope [3, 6]: 18.4 ± 2.2 mV | effect on GABA-dependent shift of tail currents ([3]; XE991 10 µM): removed the GABA-dependent negative-shift | inhibition of deactivating current at −60 mV [4]: > 50%

[3H]C(CN)C([3H])C(=O)O (stereo not drawn) [^3H-GABA]
3H-GABA binding (KCNQ1): did not | 3H-GABA binding (KCNQ4): bound | 3H-GABA binding (KCNQ5): bound

NCC(CC(=O)O)c1ccc(Cl)cc1 (stereo not drawn) [baclofen, reference compound]
effect of compound alone on KCNQ2/3 current [1]: insensitive | Slope ([1]; 100 µM Baclofen, Ctrl 9.3 ± 0.3): 9.2 ± 0.5 mV | Non-normalized tail current V0.5 ([1]; 100 µM Baclofen, Ctrl -42.6 ± 2.3): -45.4 ± 2.5 mV | Normalized tail current V0.5 ([1]; 100 µM Baclofen, Ctrl -44.2 ± 0.4): -46.4 ± 0.6 mV

NCCc1ccc(O)c(O)c1 [dopamine]
effect of compound alone on KCNQ2/3 current [1]: no effect | Slope ([1]; 100 µM Dopamine, Ctrl 8.4 ± 1.5): 7.2 ± 0.6 mV | Normalized tail current V0.5 ([1]; 100 µM Dopamine, Ctrl -40.8 ± 1.4): -41.9 ± 0.6 mV | Non-normalized tail current V0.5 ([1]; 100 µM Dopamine, Ctrl -41.6 ± 5.3): -41.8 ± 3.6 mV

CCOC(=O)Nc1ccc(NCc2ccc(F)cc2)cc1N [retigabine]
EC50 (KCNQ3*): 11600 nM | action on GABA receptors (GABA receptors): weak activator

NCC(CS(=O)(=O)O)c1ccc(Cl)cc1 (stereo not drawn) [saclofen, reference compound]
effect on GABA activation of KCNQ2/3 [1]: nor did it diminish GABA activation of KCNQ2/3 | effect of compound alone on KCNQ2/3 current [1]: neither altered KCNQ2/3 currents alone | Slope ([1]; 100 µM Saclofen, Ctrl 5.6 ± 1.1): 5.5 ± 0.8 mV | Non-normalized tail current V0.5 ([1]; 100 µM Saclofen, Ctrl -41.1 ± 6.7): -42.8 ± 6.6 mV | Normalized tail current V0.5 ([1]; 100 µM Saclofen, Ctrl -42.3 ± 0.8): -42.6 ± 0.8 mV

CCCCC(=O)O [valeric acid, reference compound]
Slope ([1]; 500 µM Valeric acid, Ctrl 9.1 ± 0.5): 8.5 ± 0.6 mV | Normalized tail current V0.5 ([1]; 500 µM Valeric acid, Ctrl -44.2 ± 0.6): -45.1 ± 0.6 mV | Non-normalized tail current V0.5 ([1]; 500 µM Valeric acid, Ctrl -44.5 ± 5.4): -45.6 ± 4.9 mV | Slope ([1]; 500 mM Valeric acid, Ctrl 9.1 ± 0.5): 8.5 ± 0.6 mV | Normalized tail current V0.5 ([1]; 500 mM Valeric acid, Ctrl -44.2 ± 0.6): -45.1 ± 0.6 mV | Non-normalized tail current V0.5 ([1]; 500 mM Valeric acid, Ctrl -44.5 ± 5.4): -45.9 ± 4.9 mV | activity on KCNQ2/3 ([1]; up to 5 mM): inactive; also recorded: no effects

Pertussis toxin
Non-normalized tail current V0.5 [1, 7]: -41.9 ± 6.3 mV | Normalized tail current V0.5 [1, 7]: -40.9 ± 1.4 mV | Slope [1, 7]: 8.8 ± 1.4 mV

picrotoxin
Slope ([3]; 100 µM picrotoxin + 10 µM CGP55845, Ctrl (extracellular solution only) 20.3 ± 4.5): 17.4 ± 3.0 mV | Normalized tail current V0.5 ([3]; 100 µM picrotoxin + 10 µM CGP55845, Ctrl (extracellular solution only) -9.2 ± 4.9): -7.1 ± 7.6 mV
